Measurements published in PubChem BioAssay (NCI).
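Step 1: Grow cells in 96-well plates. Step 2: Expose to compound for 48 hours at 5 concentrations. Step 3: Interpolate endpoints linearly; if unreached, use highest concentration. At the GI50, growth is halved. TGI is the concentration that stops growth completely.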

Tests used:
Test in all cases: NCI tumour cell line growth inhibition, 48 h
OVCAR-3 ovarian = test system: OVCAR-3 ovarian
A498 renal = test system: A498 renal
SK-OV-3 ovarian = test system: SK-OV-3 ovarian
NCI-H226 lung = test system: NCI-H226 lung
HCC-2998 colon = test system: HCC-2998 colon
SK-MEL-5 melanoma = test system: SK-MEL-5 melanoma
HL-60(TB) leukemia = test system: HL-60(TB) leukemia
NCI-H522 lung = test system: NCI-H522 lung
HS 578T breast = test system: HS 578T breast
T-47D breast = test system: T-47D breast

| Structure (SMILES) | TGI (OVCAR-3 ovarian) [µM] | TGI (A498 renal) [µM] | TGI (SK-OV-3 ovarian) [µM] | TGI (NCI-H226 lung) [µM] | TGI (HCC-2998 colon) [µM] | TGI (SK-MEL-5 melanoma) [µM] | TGI (HL-60(TB) leukemia) [µM] | TGI (NCI-H522 lung) [µM] | GI50 (OVCAR-3 ovarian) [µM] | GI50 (A498 renal) [µM] | GI50 (SK-OV-3 ovarian) [µM] | GI50 (NCI-H226 lung) [µM] | GI50 (HCC-2998 colon) [µM] | GI50 (HS 578T breast) [µM] | TGI (HS 578T breast) [µM] | GI50 (SK-MEL-5 melanoma) [µM] | GI50 (HL-60(TB) leukemia) [µM] | GI50 (NCI-H522 lung) [µM] | GI50 (T-47D breast) [µM] | TGI (T-47D breast) [µM] |
| --- | --- | --- | --- | --- | --- | --- | --- | --- | --- | --- | --- | --- | --- | --- | --- | --- | --- | --- | --- | --- |
| CCOC(=O)/C(=C/c1ccc(N(CCC#N)CCC#N)cc1C)NC(=O)/C=C/c1ccccc1 | > 100 | > 100 | > 100 | > 100 | > 100 | > 100 | > 100 | > 100 | – | – | – | – | – | – | – | – | – | – | – | – |
| O=C(C[P+](c1ccccc1)(c1ccccc1)c1ccccc1)C[P+](c1ccccc1)(c1ccccc1)c1ccccc1 | 0.807 | 1.02 | 3.17 | 0.612 | 2.17 | 1.8 | 2.57 | 0.325 | 0.296 | 0.223 | 1.49 | 0.197 | 0.784 | 0.581 | 4.5 | 0.625 | 0.256 | 0.141 | – | – |
| CC1=C[C@H]2C[C@H](C)[C@H]3CC[C@H](C)[C@]4(C1)C(=O)C(O)=C(C)C(=O)[C@@]324 | 64.6 | – | > 100 | > 100 | 47.2 | 30.8 | 33.1 | 83.4 | 20 | – | 45.1 | 33 | 19.6 | 24.7 | 67.5 | 13.5 | 15.7 | 19.8 | 19.1 | > 100 |
| CCOc1ccc(O)cc1[P+](c1ccccc1)(c1ccccc1)c1ccccc1 | 11.4 | 29.5 | 27.1 | 14.5 | 13.4 | 4.7 | – | 6.39 | – | – | – | – | – | – | – | – | – | – | – | – |
| Cc1cc(=O)[nH]c(CNC(=O)c2cccc(C(=O)NCc3cc(=O)[nH]c(C)n3)c2)n1 | > 100 | > 100 | > 100 | > 100 | > 100 | > 100 | > 100 | > 100 | – | – | – | – | – | – | – | – | – | – | – | – |
| COC(=O)/C=c1\s/c(=C\C(=O)OC)c2ccccc12 | > 100 | > 100 | > 100 | > 100 | > 100 | > 100 | > 100 | > 100 | – | – | – | – | – | – | – | – | – | – | – | – |
| CN(/N=C/c1cccc2cccnc12)c1c([N+](=O)[O-])cc([N+](=O)[O-])cc1[N+](=O)[O-] | > 100 | > 100 | > 100 | > 100 | > 100 | > 100 | > 100 | – | – | – | – | – | – | – | – | – | – | – | – | – |
| c1ccc(P(=C2c3ccccc3-c3ccccc32)(c2ccccc2)c2ccccc2)cc1 | 6.13 | – | 80.1 | – | 15.3 | 3.96 | 4.36 | 4.62 | – | – | – | – | – | – | – | – | – | – | – | – |
| Cc1nc2sccn2c1C(=O)NC(=O)Nc1ccc(Cl)cc1 | > 100 | > 100 | – | > 100 | > 100 | > 100 | > 100 | > 100 | – | – | – | – | – | – | – | – | – | – | – | – |
| O=C(CCc1nnc2s/c(=C\c3ccccc3Cl)c(=O)n12)Nc1cc(Cl)ccc1Cl | > 100 | – | > 100 | > 100 | > 100 | > 100 | > 100 | > 100 | – | – | – | – | – | – | – | – | – | – | – | – |
| C=CCOC(=O)C1CCC(=O)N1C(=O)C(Cl)Cl (stereo not drawn) | > 100 | > 100 | > 100 | > 100 | > 100 | > 100 | > 100 | > 100 | – | – | – | – | – | – | – | – | – | – | – | – |
| CN(C)CCNC(=O)c1cccc2ccc(-c3ccc(-c4ccccc4)cc3)nc12 | 12 | 11 | 31.5 | 30.1 | 3.3 | 3.1 | 4.23 | 4.33 | – | – | – | – | – | – | – | – | – | – | – | – |
| O=C(C/C(CCC(=O)N(Cc1ccccc1)Cc1ccccc1)=N/Nc1ccc([N+](=O)[O-])cc1[N+](=O)[O-])c1ccccc1 | > 100 | – | > 100 | > 100 | > 100 | – | > 100 | > 100 | – | – | – | – | – | – | – | – | – | – | – | – |
| COc1cc2c(cc1C1=NC(C)(C)CO1)OCO2 | > 100 | – | > 100 | > 100 | – | > 100 | > 100 | > 100 | – | – | – | – | – | – | – | – | – | – | – | – |
| CC[N+](C)(CC)CC(C)(C)C(=O)/C=C/c1ccc(/C=C/C(=O)C(C)(C)C[N+](C)(CC)CC)cc1 | > 100 | > 100 | > 100 | > 100 | > 100 | > 100 | > 100 | > 100 | – | – | – | – | – | – | – | – | – | – | – | – |
| N#Cc1ccc2cc3c(cc2c1)OCO3 | > 100 | > 100 | > 100 | > 100 | > 100 | – | > 100 | > 100 | – | – | – | – | – | – | – | – | – | – | – | – |
| CC1NC(=O)C2=C1C(N)=NC(=O)C2 (stereo not drawn) | > 100 | – | > 100 | > 100 | > 100 | > 100 | – | > 100 | – | – | – | – | – | – | – | – | – | – | – | – |
